# According to ChEMBL document CHEMBL1137771, “Non-nucleoside inhibitors of HCV polymerase NS5B. Part 2: Synthesis and structure-activity relationships of benzothiazine-substituted quinolinediones” (Bioorg Med Chem Lett, 2009):
# pEC50, pIC50: −log10 of the molar value.
# How the values were obtained:
# [1] = Ratio of drug level from liver to plasma in po dosed rat after 24 hrs; format: ADME, organism-based
# [2] = Cmax in dog at 1 mg/kg, iv; format: ADME, organism-based, Canis lupus familiaris; set-up: dose 1 mg/kg, route intravenous; details: in vivo
# [3] = Cmax in male rat at 500 mg/kg, po after 1 day; format: ADME, organism-based; set-up: dose 500 mg/kg, route oral; details: in vivo
# [4] = Solubility of the compound; format: physicochemical
# Hepatitis C virus [5] = assay: Antiviral activity against HCV genotype 1b isolate con1 infected in human 2209-23 cells assessed as inhibition of [3H]thymidine incorporation into DNA by scintillation proximity assay in presence of 5% fetal bovine serum; format: functional, organism-based, Hepacivirus hominis; details: isolate Con1, 2209-23
# Hepatocyte = assay: Metabolic stability in rat hepatocytes assessed per 10^6 cells; format: ADME, cell-based
# [6] = Cmax in female rat at 500 mg/kg, po after 1 day; format: ADME, organism-based; set-up: dose 500 mg/kg, route oral; details: in vivo
# [7] = Cmax in female rat at 100 mg/kg, po after 1 day; format: ADME, organism-based; set-up: dose 100 mg/kg, route oral; details: in vivo
# [8] = AUC in female rat at 10 mg/kg, po after 7 days; format: ADME, organism-based; set-up: dose 10 mg/kg, route oral; details: plasma
# [9] = Cmax in male rat at 10 mg/kg, po after 7 days; format: ADME, organism-based; set-up: dose 10 mg/kg, route oral; details: in vivo
# [10] = Clearance in rat at 2 mg/kg, iv; format: ADME, organism-based; set-up: dose 2 mg/kg, route intravenous; details: in vivo
# [11] = Cytotoxicity against human 2209-23 cells by WST1 assay; format: cell-based
# [12] = AUC in dog at 1 mg/kg, po; format: ADME, organism-based, Canis lupus familiaris; set-up: dose 1 mg/kg, route oral; details: plasma
# [13] = Half life in rat at 2 mg/kg, iv; format: ADME, organism-based; set-up: dose 2 mg/kg, route intravenous; details: in vivo
# [14] = AUC in rat at 2 mg/kg, iv; format: ADME, organism-based; set-up: dose 2 mg/kg, route intravenous; details: plasma
# [15] = AUC (0 to 24 hrs) in female rat at 100 mg/kg, po after 1 day; format: ADME, organism-based; set-up: time < 24 hr, dose 100 mg/kg, route oral; details: plasma
# [16] = Half life in dog at 1 mg/kg, po; format: ADME, organism-based, Canis lupus familiaris; set-up: dose 1 mg/kg, route oral; details: in vivo
# [17] = Half life in dog at 1 mg/kg, iv; format: ADME, organism-based, Canis lupus familiaris; set-up: dose 1 mg/kg, route intravenous; details: in vivo
# [18] = Cmin (24 hrs) in female rat at 100 mg/kg, po after 1 day; format: ADME, organism-based; set-up: dose 100 mg/kg, route oral; details: in vivo, read-out: Cmin
# [19] = AUC (0 to 24 hrs) in male rat at 500 mg/kg, po after 1 day; format: ADME, organism-based; set-up: time < 24 hr, dose 500 mg/kg, route oral; details: plasma
# [20] = Cmax in male rat at 10 mg/kg, po after 1 day; format: ADME, organism-based; set-up: dose 10 mg/kg, route oral; details: in vivo
# [21] = Cmin (24 hrs) in male rat at 100 mg/kg, po after 1 day; format: ADME, organism-based; set-up: dose 100 mg/kg, route oral; details: in vivo, read-out: Cmin
# [22] = Cmax in male rat at 500 mg/kg, po after 7 days; format: ADME, organism-based; set-up: dose 500 mg/kg, route oral; details: in vivo
# [23] = Cmin (24 hrs) in male rat at 500 mg/kg, po after 1 day; format: ADME, organism-based; set-up: dose 500 mg/kg, route oral; details: in vivo, read-out: Cmin
# [24] = Cmax in dog at 1 mg/kg, po; format: ADME, organism-based, Canis lupus familiaris; set-up: dose 1 mg/kg, route oral; details: in vivo
# Hepatitis C virus [25] = assay: Antiviral activity against HCV genotype 1b isolate con1 infected in human 2209-23 cells assessed as inhibition of [3H]thymidine incorporation into DNA by scintillation proximity assay in presence of 40% human serum albumin; format: functional, organism-based, Hepacivirus hominis; details: isolate Con1, 2209-23
# [26] = Cmax in rat at 5 mg/kg, po; format: ADME, organism-based; set-up: dose 5 mg/kg, route oral; details: in vivo
# [27] = Clearance in dog at 1 mg/kg, iv; format: ADME, organism-based, Canis lupus familiaris; set-up: dose 1 mg/kg, route intravenous; details: in vivo
# [28] = Drug concentration in rat liver at 5 mg/kg, po after 2 hrs; format: ADME, organism-based; set-up: dose 5 mg/kg, route oral; details: read-out: Drug uptake
# [29] = Cmax in female rat at 10 mg/kg, po after 1 day; format: ADME, organism-based; set-up: dose 10 mg/kg, route oral; details: in vivo
# [30] = AUC in male rat at 500 mg/kg, po after 7 days; format: ADME, organism-based; set-up: dose 500 mg/kg, route oral; details: plasma
# [31] = Cmax in male rat at 100 mg/kg, po after 1 day; format: ADME, organism-based; set-up: dose 100 mg/kg, route oral; details: in vivo
# [32] = Cmax in female dog at 2 mg/kg, po dosed as nanosized particles; format: ADME, organism-based, Canis lupus familiaris; set-up: dose 2 mg/kg, route oral; details: in vivo
# [33] = Toxicity in rat assessed as adverse effects after 7 days; format: organism-based; details: in vivo
# [34] = Metabolic stability in dog liver microsomes; format: ADME, Canis lupus familiaris, Microsome; details: read-out: Stability
# [35] = Metabolic stability in rat liver microsomes; format: ADME, Microsome; details: read-out: Stability
# [36] = AUC (0 to 24 hrs) in female rat at 500 mg/kg, po after 1 day; format: ADME, organism-based; set-up: time < 24 hr, dose 500 mg/kg, route oral; details: plasma
# Hepatitis C virus [37] = assay: Inhibition of HCV genotype 1b isolate con1 NS5B polymerase assessed as incorporation of radiolabeled nucleotide into RNA product; set-up: species or system Hepacivirus hominis
# [38] = Cmax in female rat at 10 mg/kg, po after 7 days; format: ADME, organism-based; set-up: dose 10 mg/kg, route oral; details: in vivo
# [39] = Cmax in female rat at 500 mg/kg, po after 7 days; format: ADME, organism-based; set-up: dose 500 mg/kg, route oral; details: in vivo
# [40] = AUC (0 to 24 hrs) in female rat at 10 mg/kg, po after 1 day; format: ADME, organism-based; set-up: time < 24 hr, dose 10 mg/kg, route oral; details: plasma
# [41] = Cmin (24 hrs) in female rat at 500 mg/kg, po after 1 day; format: ADME, organism-based; set-up: dose 500 mg/kg, route oral; details: in vivo, read-out: Cmin
# [42] = Cmax in female dog at 2 mg/kg, po dosed as normal particles; format: ADME, organism-based, Canis lupus familiaris; set-up: dose 2 mg/kg, route oral; details: in vivo
# [43] = AUC in dog at 1 mg/kg, iv; format: ADME, organism-based, Canis lupus familiaris; set-up: dose 1 mg/kg, route intravenous; details: plasma
# [44] = Drug concentration in rat liver at 5 mg/kg, po after 6 hrs; format: ADME, organism-based; set-up: dose 5 mg/kg, route oral; details: read-out: Drug uptake
# Caco-2 = assay: Efflux ratio of permeability from […] side in human Caco-2 cells after 21 days; format: ADME, cell-based; details: caco-2, 504 h
# [45] = Cmax in female rat at 100 mg/kg, po after 7 days; format: ADME, organism-based; set-up: dose 100 mg/kg, route oral; details: in vivo
# [46] = Cmax in male rat at 100 mg/kg, po after 7 days; format: ADME, organism-based; set-up: dose 100 mg/kg, route oral; details: in vivo
# [47] = Cmax in rat at 2 mg/kg, iv; format: ADME, organism-based; set-up: dose 2 mg/kg, route intravenous; details: in vivo
# serum albumin = serum albumin (Homo sapiens, UniProt P02768); assay: Binding affinity to human serum albumin; format: ADME; details: read-out: PB (converted)
# [48] = AUC in male rat at 100 mg/kg, po after 7 days; format: ADME, organism-based; set-up: dose 100 mg/kg, route oral; details: plasma
# Hepatitis C virus [49] = assay: Ratio of EC50 for HCV genotype 1b isolate con1 in presence of human serum albumin to EC50 for HCV genotype 1b isolate con1 in presence of fetal bovine serum; format: functional, Hepacivirus hominis
# [50] = AUC (0 to 24 hrs) in male rat at 100 mg/kg, po after 1 day; format: ADME, organism-based; set-up: time < 24 hr, dose 100 mg/kg, route oral; details: plasma
# [51] = AUC in male rat at 10 mg/kg, po after 7 days; format: ADME, organism-based; set-up: dose 10 mg/kg, route oral; details: plasma
# [52] = AUC (0 to 24 hrs) in male rat at 10 mg/kg, po after 1 day; format: ADME, organism-based; set-up: time < 24 hr, dose 10 mg/kg, route oral; details: plasma
# [53] = AUC in female rat at 100 mg/kg, po after 7 days; format: ADME, organism-based; set-up: dose 100 mg/kg, route oral; details: plasma
# [54] = AUC in female rat at 500 mg/kg, po after 7 days; format: ADME, organism-based; set-up: dose 500 mg/kg, route oral; details: plasma
# [55] = Cmax in female dog at 2 mg/kg administered intraduodenally as cannula dose; format: ADME, organism-based, Canis lupus familiaris; set-up: dose 2 mg/kg, route intraduodenal; details: in vivo
# Sequence of serum albumin (P02768 whole entry): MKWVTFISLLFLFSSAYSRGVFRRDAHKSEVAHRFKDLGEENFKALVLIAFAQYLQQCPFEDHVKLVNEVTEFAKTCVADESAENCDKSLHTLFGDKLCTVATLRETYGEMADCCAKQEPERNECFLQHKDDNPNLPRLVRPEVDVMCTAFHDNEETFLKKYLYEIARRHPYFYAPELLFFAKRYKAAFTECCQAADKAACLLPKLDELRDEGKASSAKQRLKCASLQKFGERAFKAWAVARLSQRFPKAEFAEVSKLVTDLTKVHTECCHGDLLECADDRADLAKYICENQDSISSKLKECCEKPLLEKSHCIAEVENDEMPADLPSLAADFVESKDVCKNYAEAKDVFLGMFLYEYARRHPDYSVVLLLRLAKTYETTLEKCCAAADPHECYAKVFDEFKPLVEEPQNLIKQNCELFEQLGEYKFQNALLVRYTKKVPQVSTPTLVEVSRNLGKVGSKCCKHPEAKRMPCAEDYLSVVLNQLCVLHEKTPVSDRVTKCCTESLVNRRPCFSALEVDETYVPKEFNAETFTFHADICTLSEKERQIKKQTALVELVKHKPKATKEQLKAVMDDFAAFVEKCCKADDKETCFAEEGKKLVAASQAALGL
smiles,measurement,setting,value
Cc1cc(Cn2c(=O)c(C3=CS(=O)(=O)c4cc(NS(C)(=O)=O)ccc4N3)c(O)c3cc(F)ccc32)ccc1F,Kp at 24 h,[1],10
same,Cmax,[2],4350 ng/mL
same,Cmax,[3],93.2 ng/mL
same,solubility,[4],6.7 µg/mL
same,pEC50,Hepatitis C virus [5],7.64
same,Stability,Hepatocyte,1.6 µL/min
same,Cmax,[6],48.2 ng/mL
same,Cmax,[7],13 ng/mL
same,AUC at 168 h,[8],21.2 ng·h/mL
same,Cmax,[9],2.76 ng/mL
same,clearance,[10],186 mL/min/kg
same,CC50,[11],> 50000 nM
same,AUC,[12],34.8 ng·h/mL
same,half-life,[13],1.1 h
same,AUC,[14],158 ng·h/mL
same,AUC(0-t) at 24 h,[15],116 ng·h/mL
same,half-life,[16],1.2 h
same,half-life,[17],1.6 h
same,concentration at 24 h,[18],2.1 ng/mL
same,AUC(0-t) at 24 h,[19],821 ng·h/mL
same,Cmax,[20],2.06 ng/mL
same,concentration at 24 h,[21],2.8 ng/mL
same,Cmax,[22],152 ng/mL
same,concentration at 24 h,[23],11.3 ng/mL
same,Cmax,[24],10.6 ng/mL
same,pEC50,Hepatitis C virus [25],7.06
same,Cmax,[26],2 ng/mL
same,clearance,[27],19 mL/min/kg
same,concentration at 2 h,[28],151 ng/g
same,Cmax,[29],3.26 ng/mL
same,AUC at 168 h,[30],1910 ng·h/mL
same,Cmax,[31],20.4 ng/mL
same,Cmax,[32],< 15 ng/mL
same,NOAEL at 168 h,[33],> 500 mg/kg/day
same,microsomal CLint,[34],24 µL/min/mg
same,microsomal CLint,[35],126 µL/min/mg
same,AUC(0-t) at 24 h,[36],701 ng·h/mL
same,pIC50,Hepatitis C virus [37],7.89
same,Cmax,[38],2.8 ng/mL
same,Cmax,[39],89.3 ng/mL
same,AUC(0-t) at 24 h,[40],25.6 ng·h/mL
same,concentration at 24 h,[41],1.3 ng/mL
same,Cmax,[42],< 15 ng/mL
same,AUC,[43],954 ng·h/mL
same,concentration at 6 h,[44],22 ng/g
same,Ratio,Caco-2,3.78
same,Cmax,[45],15.8 ng/mL
same,Cmax,[46],21.1 ng/mL
same,Cmax,[47],130 ng/mL
same,fraction unbound,serum albumin,0.002
same,AUC at 168 h,[48],322 ng·h/mL
same,fold change (FC),Hepatitis C virus [49],9.2
same,AUC(0-t) at 24 h,[50],223 ng·h/mL
same,AUC at 168 h,[51],34.4 ng·h/mL
same,AUC(0-t) at 24 h,[52],25.4 ng·h/mL
same,AUC at 168 h,[53],299 ng·h/mL
same,AUC at 168 h,[54],1470 ng·h/mL
same,Cmax,[55],< 15 ng/mL
